Results as given in publication PMC10731658 (Chemical Research in Toxicology, 2023).
pIC50: −log10 of the molar value.

How the values were obtained:
[1] = test system: HepG2 cells; test: Intracellular RONS detection with DHE fluorescent probe; format: cell-based, human; conditions: IC50 concentration
Experimental: Two different fluorescent dyes, i.e., 2,7-dichlorodihydrofluorescein diacetate (DCFH-DA, Cayman Chemicals Company, Ann Arbor, MI) and dihydroethidium (DHE, Sigma-Aldrich, St. Louis, MO) were utilized for the determination of intracellular levels of RONS after 1, 4, and 24 h of incubation with tested oxime reactivators or TBHP (positive control). Cells incubated with oxime-free DMEM represented untreated control. After the incubation, the experimental medium was removed and replaced with a solution of DCFH-DA or DHE at concentrations of 20 and 5 μmol/L, respectively. The cells were subsequently incubated at 37 °C in a CO2 incubator for 45 min. Afterward, the fluorescence intensity of each well was measured using a Spark multimode microplate reader at an excitation wavelength of 485 nm for DCFH-DA or 528 nm for the DHE probe and an emission wavelength of 535 or 590 nm, respectively. Each experiment was carried out in triplicate and repeated three independent times.
The toxicological indices IC50 were calculated from control-subtracted triplicates using nonlinear regression (four parameters) using GraphPad Prism 9 software version 9.3.0 (GraphPad Software Inc., San Diego, CA). One-way analysis of variance (ANOVA) followed by Dunnetʼs multiple comparison test was used for RONS, MDA, NP-SH, and NP-SS-NP statistical analysis by GraphPad Prism 9 software, version 9.3.0. Data are expressed as means ± standard deviation (SD) of three independent measurements (n = 3). Significant differences between oxime-treated and untreated control groups (p ≤ 0.05) were marked by an asterisk (*).

[2] = test system: HepG2 cells; test: Intracellular nonprotein disulfides (NP-SS-NP) by HPLC-UV; format: cell-based, human; conditions: IC50 concentration
Experimental: (§1) The culture medium was removed from a 25 cm^2 culture flask on the day of the experiment, and cells were washed twice with 3 mL of phosphate-buffered saline (PBS; GE Healthcare Life Sciences, South Logan, UT). Subsequently, 3 mL of a plain DMEM medium (negative control) and a DMEM medium containing TBHP (positive control) or individual oximes were added to each flask, and cells were incubated for 1, 4, and 24 h. The concentration of individual oxime and TBHP in the DMEM medium corresponded to the IC50 value. After incubation, the experimental medium was removed, and cells were washed with 3 mL of PBS and harvested by scraping. The resulting suspension was centrifuged at 220g and 21 °C for 5 min (Universal 320R centrifuge, Hettich, Tuttlingen, Germany). The supernatant was removed and dried cell pellets were stored at −80 °C. Each experiment was carried out in three independent replicates.
(§2) The cell pellets were thawed at room temperature, resuspended in 500 μL of ultrapure water (Millipore Purification System, Merck, Millipore, Darmstadt, Germany), and sonicated for 2 min (2 s cycle, amplitude 20%) in a Q500 homogenizer (QSONICA Sonicators, Newton). Then, the homogenate was divided into three parts: 250 μL for the determination of malondialdehyde (MDA), 100 μL for each determination of nonprotein thiols (NP-SH) and disulfides (NP-SS-NP), and 10 μL for the Bradford protein assay.
(§3) The HepG2 cell homogenate obtained, as described in Section 2.6, was processed for the determination of intracellular NP-SH and NP-SS-NP, according to Muckova et al.[11] The samples were analyzed using the HPLC system described above equipped with an SPD 20-AV Prominence UV/vis detector. The analysis was carried out on a Phenomenex LUNA C18 column (150 mm × 3 mm, 3 μm, 100 Å) protected with a Security Cartridge (4 mm × 2 mm, Phenomenex, Torrance) at 30 °C and a constant flow rate of 0.330 mL/using the mobile phase consisting of 0.9% aqueous FA (A) and ACN (B) under gradient conditions: 0–1 min 12% B, 1.1–2 min 12–55% B, 2–7 min 55% B, 7.1 min 55% B, and 7.1–10 min 12% B. The detector was set at 326 nm and the sample injection volume was 20 μL.

[3] = test system: HepG2 cells; test: Total intracellular MDA by LC-MS/MS; format: cell-based, human; conditions: IC50 concentration
[4] = Colorimetric MTT cell viability assay, 24 h; conditions: human, HepG2 cells, IC50 (cytotoxicity, MTT assay), 24 h incubation
[5] = test system: HepG2 cells; test: Colorimetric MTT cell viability assay, 24 h; conditions: read-out: IC50 (cytotoxicity, MTT assay), 24 h incubation
[6] = test system: HepG2 cells; test: Intracellular nonprotein thiols (NP-SH) by HPLC-UV; format: cell-based, human; conditions: 24 h, IC50 concentration
Experimental: as §1, §2, §3

[7] = test system: HepG2 cells; conditions: combined exposure with TBHP (IC50 concentration); oximes about 10-fold below IC50; cited from earlier work
[8] = test system: rat plasma; conditions: in vivo; cited from earlier work

| Structure (SMILES) | increase of RONS (DHE probe) vs negative control ([1]; 4 h incubation) | increase of RONS (DHE probe) vs negative control ([1]; 24 h incubation) | increase in NP-SS-NP levels vs untreated control ([2]; 1 h) | increase in NP-SS-NP levels vs untreated control ([2]; 4 h) | increase in NP-SS-NP levels vs untreated control ([2]; 24 h) | increase of MDA levels vs untreated control ([3]; 4 h incubation) | increase of MDA levels vs untreated control ([3]; 24 h exposure) | IC50 at 24 h [4] | pIC50 [5] | decrease in NP-SH levels vs untreated control [6] | increased production of ROS [7] | signs of oxidative stress (TBARS, superoxide dismutase activity) [8] |
| --- | --- | --- | --- | --- | --- | --- | --- | --- | --- | --- | --- | --- |
| O/N=C/c1cc[n+](CCCC[n+]2ccc(/C=N/O)cc2)cc1 [K074, 1,1′-(butane-1,4-diyl)bis(4((hydroxyimino)methyl)pyridine-1-ium) dibromide] | 33.4% | 42.8% | 42.8% | 52.4% | 72.3% | 23.6% | 36.1% | ~27 mM | 1.57 | 11.6% | 16% |  |
| NC(=O)c1cc[n+](CCCC[n+]2ccc(C=NO)cc2)cc1.[Br-].[Br-] [K048, 4-carbamoyl-1-(4-(4-((hydroxyimino)methyl)pyridin-1-ium-1-yl)butyl)pyridin-1-ium dibromide] | 25.8% |  | 34.8% | 54.8% | 61.5% | 17.2% | 35.4% | ~30 mM | 1.51 | 11.4% | 25% | no signs of oxidative stress |
